Measured values reported in patent US12274703B2, “Compositions and methods of treatment for neurological disorders comprising a dementia” (Gliapharm SA, priority 2017, dated 2025).

The compounds below were run on primary astrocytes (assay: High throughput screening for lactate secretion: acidification of extracellular medium (SNARF5)). Details: Mus musculus, Astrocyte, 1.5 h; Appendix I; primary screening, 10 uM, 90 min; relative to positive control; read-out: Score.
Format: cell-based, mouse
Method: (§1) Primary cultures of cerebrocortical astrocytes were obtained from 1-2-day-old OF1 mouse pups (Charles River Laboratories). Briefly, cortices were isolated and minced in small pieces under a dissecting microscope. The cells were incubated for 30 min at 37° C. in a solution containing 20 U/ml of papain enzyme (Worthington Biochemical), L-cysteine 1 mM (Sigma), and 10 kU/ml DNase I (Worthington Biochemical) for an enzymatic dissociation. Papain activity was stopped by the addition of fetal calf serum (FCS) to the solution, and a single-cell suspension was then obtained by mechanical dissociation, which consisted in cells trituration in a DMEM (D7777, Sigma-Aldrich) medium (supplemented with 44 mm NaHCO3, and 10 ml/L antibiotic/antimycotic solution) containing 10% FCS. The cells were seeded at an average density of 6×10^4 cells/cm^2 in poly-D-lysine-coated 96, 12 or 6-well culture plates, depending on their use, and incubated at 37° C. in a humidified atmosphere containing 5% CO2/95% air. Culture medium was renewed twice per week. Cells were stimulated and harvested between DIV14 and DIV17, when confluence and cell growth were optimal.
Secretion of lactate in a high-throughput screening (HTS) fashion was measured indirectly through the acidification of extracellular medium. To this end, primary astrocytes grown in 96-well plates for 17 days were stimulated with the compounds as listed herein.
After washing the cells twice with stimulation medium (DMEM (D5030, Sigma), 3 mM NaHCO3 and 5 mM Glucose) at 37° C., cells were stimulated with the compounds at a final concentration of 10 uM (1% DMSO final) in 50 ul per well of stimulation medium supplemented with 10 uM of the extracellular pH sensor SNARF-5F %-(AND-6)-CAR (Life Technologies Corporation). Each compound was tested in two different plates for duplicates.
After 90 min stimulation, fluorescence was read at exc. (excitation) 480 nm/emm. (emission) 580 nm and at exc 480 nm/emm. 630 nm. The ratio of fluorescence between 630 nm and 580 emission values, which represents extracellular pH, was calculated.
In each plate, 8 wells were used for negative controls (DMSO) and 8 wells were used for positive controls (CCCP 2 uM in DMSO). Z prime values were calculated for each of the plates tested and values <0 were discarded.
The average and SD of compounds' values tested in duplicates were calculated, and compound was noted as HIT when the difference between compound's average and negative control's average was greater than three times the sum of compound's SD and negative controls' SD. Only scores greater than 40% were considered as lead hits for the CDC54K library; for the remaining libraries, all hits were considered. Scores are calculated as the % of activity compared to the positive control in each plate (which is 100%).
Primary screening hits were cherry picked on new plates and confirmed for SNARF5 effect, after having discarded those compounds that are fluorescent (exc. 480 nm/emm. 580 nm or 630 nm) before stimulation. Extracellular medium was next analyzed for extracellular lactate quantification for secondary screening.
Identification of lactate-enhancing drugs with high throughput screening (HTS) experiments on astrocytes primary cultures using extracellular pH dye (SNARF5F 5-(and 6)-carboxylic acid) for 90 min. The procedure is described in Material and Methods (2. Cell culture, 2.1. HTS for lactate secretion and 2.2. Extracellular lactate quantification).
The procedure was performed as follows: • Primary screening: acidification of the extracellular medium • Primary screening confirmation: acidification of the extracellular medium, removal of compounds with fluorescent activity at exc. 480 nm/emm. 580 nm or 630 nm. • Secondary screening: dosage of extracellular lactate
`CC(Nc1ncnc2sccc12)c1ccccn1` (stereo not shown) [T5672380] was tested, and the Emax at 10 µM was 76.5%.

The compounds below were run on astrocytes (assay: Extracellular lactate quantification). Details: Mus musculus, Astrocyte; Appendix II; lactate secretion; read-out: EC50.
Format: cell-based, mouse
Method: as §1
Secretion of L-lactate was determined in the extracellular medium of 96-well plated astrocytes after 90 min stimulation (at 37° C., in 5% CO2/95% air conditions) with the drug of interest. The stimulation medium was composed of D5030 medium (completed with D-glucose 5 mM and 44 mM sodium bicarbonate) for 90 min in concentrations ranging from 0 to 100 μM.
Briefly, 200 μl of a Glycine (Sigma)-Semicarbazide (Acros) 0.2M pH 10 buffer containing 3 mM NAD (Roche) and LDH 14 U/ml (Roche) was added to each well of a 96-well plate containing 30 μl aliquots complemented with 20 μl fresh complete D5030 medium. Samples were incubated at 37° C. for 1 h. After samples cooled down at room temperature, the fluorescence intensity (340 nm excitation/450 nm emission) that represents the amount of NADH produced was measured, and lactate concentration values were determined from a standard curve of L-lactate.
Statistical analysis consisted in ANOVA followed by Fisher LSD post-hoc test for pair-wise comparisons.
Levels of lactate secreted by astrocytes were measured in the extracellular medium at 90 min after stimulation with hits (molecules) from the CDC54K library.
`CCNc1cc(C)nc(Nc2ccc(NC(=O)c3cccs3)cc2)n1` [G869-0071] gave an EC50 of 4.9 µM.
Compound `COc1ccc(C(C)NC(=O)c2cc(=O)c3ccccc3o2)cc1F` (stereo not shown) [T5710343] has an EC50 of 6.31 µM.
`Cc1sc2nc(CSc3nc4ccccc4[nH]3)nc(N)c2c1C` [T5719257] was tested, and the EC50 was 2.85 µM.
`COc1cccc(C(CNc2nc(C(F)(F)F)nc3ccccc23)N(C)C)c1` (stereo not shown) [T5800607] gave an EC50 of 5.87 µM.
`Cc1c(O)ccc2c(CN(C)CC3COc4ccccc4O3)cc(=O)oc12` (stereo not shown) [T5494352] showed an EC50 of 5.02 µM.
With `CCn1c(=O)c(C)nc2cc(C(=O)N(Cc3ccc(F)cc3)C3CC3)ccc21` [T5586091] the EC50 was 5.36 µM.
In the case of `CC(=O)N1CCc2cc(S(=O)(=O)NCC(C)c3ccccc3)ccc21` (stereo not shown) [T5707230], the EC50 is reported as 4.88 µM.
With `Cc1ccc(OCCn2c(C)nc3ccccc32)cc1` [T5444083] the EC50 was 4.59 µM.
`Cc1noc2ncnc(NC(C)CCc3ccccc3)c12` (stereo not shown) [E944-0182] showed an EC50 of 3.99 µM.
With `CCCCn1c(CN(C)Cc2ccccc2)nc2c1c(=O)n(C)c(=O)n2C` [T5788545] the EC50 was 3.59 µM.
For `CN(C)S(=O)(=O)c1cccc(C(=O)Nc2ccc(Oc3ccccc3)cc2)c1` [T5393500], the EC50 was 3.43 µM.
For `COc1ccc(NS(=O)(=O)c2ccc(NC(=O)C3CCCO3)cc2)cc1` (stereo not shown) [T5329723], the EC50 was 4.61 µM.
With `CC(=O)N1CC(C)(C)c2cc(S(=O)(=O)Nc3ccc(F)cc3C)ccc21` [L302-0181] the EC50 was 5.05 µM.
In the case of `COc1ccccc1NC(=O)CO/N=C(/N)c1cccc(C(F)(F)F)c1` [T5770640], the EC50 is reported as 4.86 µM.
`FC(F)(F)c1cccc(CNc2ncnc3[nH]ncc23)c1` [F5285-0069] gave an EC50 of 6.29 µM.
`CCN1C(=O)c2cccc3c(S(=O)(=O)Nc4ccc(OC)cc4OC)ccc1c23` [T5477696] gave an EC50 of 5.1 µM.
With `C1CCCC(NC2=NCCCNC23CCCCC3)CC1` [Z076-0028] the EC50 was 8.01 µM.
In the case of `CCc1c(C)nc2ncnn2c1NC1CCCCC1` [Z606-8352], the EC50 is reported as 4.11 µM.
For `CN(C)c1ccc2ncnc(N3CCN(C(=O)c4ccc(Cl)cc4)CC3)c2c1` [M381-0730], the EC50 was 3.19 µM.
In the case of `c1ccc(CN2CCOCC2)c(CNc2ncnc3ccsc23)c1` [T5790476], the EC50 is reported as 3.98 µM.
Compound `CCc1ccc(S(=O)(=O)Nc2cc3c(cc2C)n(C)c(=O)n3C)cc1` [G433-0293] has an EC50 of 4.48 µM.
`CCCCN1C(=O)C(C)(C(=O)Nc2ccc(OCC)cc2)Oc2cccnc21` (stereo not shown) [P621-1364] was tested, and the EC50 was 5.86 µM.
With `CC1(C)Cc2cccc(OCC(O)CN3CCc4ccccc4C3)c2O1` (stereo not shown) [T0515-1783] the EC50 was 5.39 µM.
`CCc1cccc(NS(=O)(=O)c2ccc3c(c2)CCCN3C(C)=O)c1` [G855-0143] gave an EC50 of 4.72 µM.
In the case of `CC(=O)N1CC(C)(C)c2cc(S(=O)(=O)NCc3ccc(C)cc3)ccc21` [L302-0069], the EC50 is reported as 6.27 µM.
Compound `CN1c2ccccc2C(=O)NC1c1ccc(Cl)c(Cl)c1` (stereo not shown) [T5389517] has an EC50 of 5.74 µM.
In the case of `Cc1nc2ncnn2c(NCc2ccco2)c1C` [Z606-8298], the EC50 is reported as 4.89 µM.
In the case of `O=C(CN1CCCC1c1ccc2c(c1)OCCCO2)Nc1cc(F)cc(F)c1` (stereo not shown) [T5993799], the EC50 is reported as 8.81 µM.
In the case of `c1ccc(-c2c[nH]c3ncnc(NCCN4CCOCC4)c23)cc1` [T0513-0213], the EC50 is reported as 3.99 µM.
`CC(=O)N1CCCc2cc(S(=O)(=O)Nc3ccc(OC(F)(F)F)cc3)ccc21` [G855-0183] was tested, and the EC50 was 6 µM.
`Cc1ccc(-c2csc(NC(=O)c3ccncc3)n2)cc1[N+](=O)O` [T5694329] was tested, and the EC50 was 1.59 µM.
Work on `O=S(=O)(Nc1ccc(S(=O)(=O)C(F)F)cc1)c1ccc(Cl)cc1` [T5311200] yielded an EC50 of 6.02 µM.
In the case of `CCNc1cc(C)nc(Nc2ccc(NC(=O)Cc3ccccc3)cc2)n1` [G869-0064], the EC50 is reported as 4.26 µM.
`O=C(Nc1ccc(F)c(F)c1)c1ccc(Cl)c(S(=O)(=O)N2CCCC2)c1` [T5450239] was tested, and the EC50 was 4.42 µM.
Work on `CC(=O)Nc1cccc(NC(=O)CSc2nc(C)c(C)n2C2CCCC2)c1` [T5788339] yielded an EC50 of 3.9 µM.
`COc1ccc(NS(=O)(=O)c2ccc(N3CCCCS3(=O)=O)cc2)cc1` [G508-0015] showed an EC50 of 4.83 µM.
`CCc1c(C)nc2ncnn2c1NC1CCCCCC1` [Z606-8351] showed an EC50 of 5 µM.
`CCN(CC)S(=O)(=O)c1ccc(S(=O)(=O)Nc2ccc(C)cc2Cl)cc1` [T5453923] showed an EC50 of 5.36 µM.
`Cc1nc2ncnn2c(NC2CCCCCC2)c1C` [Z606-8287] was tested, and the EC50 was 4.29 µM.
Work on `CC(=O)c1c(C)[nH]c(C(=O)C(C)N(C)Cc2ccc3c(c2)OCO3)c1C` (stereo not shown) [T5798761] yielded an EC50 of 4.01 µM.
`COc1cc(C)c(NC(=O)Cc2ccc(Cl)c(Cl)c2)cc1OC` [T5783794] was tested, and the EC50 was 6.11 µM.
In the case of `CC(Nc1ncnc2sccc12)c1ccccn1` (stereo not shown) [T5672380], the EC50 is reported as 3.91 µM.
Compound `CCCC(=O)Nc1nc(-c2ccc3c(c2)CCO3)cs1` [T5691896] has an EC50 of 5.21 µM.
For `CCC(C)NS(=O)(=O)c1ccc(Oc2ccc(C)cc2)cc1` (stereo not shown) [T5400234], the EC50 was 4.64 µM.
`CCOc1ccc(-c2csc3c(=O)n(Cc4ccncc4)cnc23)cc1OCC` [L115-0403] showed an EC50 of 3.28 µM.
`N#Cc1cc(C(=O)c2cc(F)ccc2O)cn(-c2ccc(F)c(Cl)c2)c1=O` [T0516-6894] was tested, and the EC50 was 8.21 µM.
`CCc1cc2c(NC3CCCC3)ncnc2s1` [887-0183] showed an EC50 of 3.94 µM.
`CC(=O)c1c(C)[nH]c(C(=O)N(C)Cc2ccc(C)cc2C)c1C` [T5705522] showed an EC50 of 2.53 µM.
Compound `COc1ccc(NS(=O)(=O)c2cccc(NC(=O)c3ccccc3)c2)cc1` [T5274959] has an EC50 of 4.12 µM.
For `O=c1[nH]nc(OCCOc2ccc(Br)cc2)n1C1CC1` [T533260], the EC50 was 6.84 µM.
`Cc1ccc(S(=O)(=O)Nc2ccc(F)c(F)c2F)cc1[N+](=O)[O-]` [T5729557] showed an EC50 of 5.69 µM.
`CCc1ccc(S(=O)(=O)Nc2c(C)nn(C)c2C)cc1` [T5753165] gave an EC50 of 6.41 µM.
`CCc1ccccc1NC(=O)CN(C)c1ncnc2c1oc1ccccc12` [T5712071] showed an EC50 of 1.14 µM.
With `COc1ccc(CCNc2ncnc3c2cnn3C)cc1` [K405-2595] the EC50 was 3.51 µM.
In the case of `Cc1cccc(NS(=O)(=O)c2ccc(F)c(Cl)c2)c1` [F3394-1364], the EC50 is reported as 5.87 µM.
`COc1ccc(S(=O)(=O)Nc2ccc(N3CCCCS3(=O)=O)cc2)cc1C` [F2794-0128] was tested, and the EC50 was 9.85 µM.
In the case of `CCc1ccc(NS(=O)(=O)c2c(C)c(-c3nnc(C4CC4)o3)n(C)c2C)cc1` [M950-1515], the EC50 is reported as 4.06 µM.
`Cc1cccc(NC(=O)c2ccc(S(=O)(=O)Nc3ccccc3)cc2)n1` [T6125251] gave an EC50 of 4.56 µM.
`Cn1nc(C(=O)Nc2ccc(Oc3ccccc3Cl)cc2)ccc1=O` [T5813085] gave an EC50 of 4.1 µM.
Work on `Cc1nc2ccccc2n1CCOc1ccc(Br)cc1` [T0505-4087] yielded an EC50 of 7.07 µM.
For `CC(C)(C)NS(=O)(=O)c1cccc(C(=O)Nc2ccncc2)c1` [T5827594], the EC50 was 5.02 µM.
Work on `O=S(=O)(Nc1ccc(Cl)cc1)c1ccc(F)c(Cl)c1` [T6947848] yielded an EC50 of 5.5 µM.
In the case of `CCc1ccc(NC(=O)Cc2cn(C)c3ncccc23)cc1` [M508-0370], the EC50 is reported as 4.58 µM.
